Experimental data reported in article PMC10892419, “UHPLC-MS/MS Assay for Quantification of Legubicin, a Novel Doxorubicin-Based Legumain-Activated Prodrug, and Its Application to Pharmacokinetic and Tissue Distribution Studies” (Molecules, 2024).

Experiments:
[1] = Multiple-dose pharmacokinetic study of legubicin, weekly i.v. for 4 weeks; details: free metabolite in plasma, weekly i.v. legubicin 5 mg/kg; for Tmax: median [min, max]; for AUClast / Cmax: n = 3
Procedure: (§1) The mixture was vortexed for 3 min, and then centrifuged at 22,000× g at 4 °C for 10 min. A final analysis was conducted by injecting 5 µL supernatant into a UHPLC-MS/MS system. Mouse plasma samples were treated in the same way as the rat plasma samples, except for protein precipitation, with 200 µL of 5 pmol/mL IS working solution and injection of 2 µL of supernatant for analysis.
(§2) (1) For the hydrolysis process, an aliquot of 25 µL of rat/mouse plasma was transferred into an Eppendorf tube, and then 50 µL of enzyme digestion buffer and 25 µL of legumain enzyme were placed into the tube. The mixture was vortexed for 1 min, and then incubated in a water bath for 24 h at 37 °C for enzymatic hydrolysis. (2) For the protein precipitation process, 1000 µL of IS working solution (5 pmol/mL and 50 pmol/mL for rat and mouse plasmas, respectively) was added to the enzymatic-hydrolysis solution. Then, the sample was vortexed for 3 min and centrifuged at 22,000× g for 10 min at 4 °C. Analyses were performed on the 3 µL aliquot of the solution used in the UHPLC-MS/MS system.
(§3) Twenty-four rats, inclusive of both sexes, were randomly distributed into four groups. Groups 1, 2, and 3 were single-dose groups, among which the subjects received legubicin via tail intravenous injection (a dose of 1.5, 5, or 15 mg/kg; i.e., 1.36, 4.52, or 13.6 µmol/kg). The fourth group was utilized for a multi-dose study at 5 mg/kg (once-weekly for 4 consecutive weeks). Blood samples of approximately 150 µL were taken from the jugular vein at 0 h (pre-dosing) and at 0.167 h (10 min), 0.5 h, 1 h, 2 h, 4 h, 8 h, 24 h, 48 h, and 72 h post-dosing in the single-dose groups. Samples were also obtained on days 1 and 22 for the multiple-dose group in the same way as for the single-dose groups. However, on days 8 and 15, samples were taken only before and 10 min after administration. The K2EDTA quantities containing blood samples were centrifuged (4 °C, 4000 rpm, 10 min) to collect plasma samples, which were separated into EP tubes and kept at −80 °C until further assay.
(§4) The analysis software (Version 1.5.2, AB Sciex, Vaughan, ON, Canada) was applied to data acquisition and quantification. Pharmacokinetic parameters were calculated with WinNonlin Phoenix (v6.4, Pharsight, Mountain View, CA, USA) with the noncompartmental method, and were presented as mean ± SD (%CV). The “Best fit” strategy in the WinNonlin Phoenix was used for the calculation of elimination half-life and the selection of the elimination phase. Graphs were plotted by GraphPad Software (GraphPad Prism 8.0.2; GraphPad Software, Inc., La Jolla, CA, USA).

[2] = Single-dose pharmacokinetic study of legubicin, i.v.; details: free metabolite in plasma; for AUClast / Cmax: n = 3, mean ± SD; for Tmax: n = 3, median [min, max]
Procedure: The pharmacokinetic parameters are outlined in Table 5. […] A power-function model was used to fit the relationship between exposure level (Cmax, AUClast, and AUCINF_obs) parameters and dose, and the power exponent (parameter β) and its 90% confidence interval were obtained (see Table S5).
as §1, §2, §3, §4

[3] = Tissue-distribution study after i.v. legubicin or doxorubicin; details: after i.v. legubicin 9.05 µmol/kg, HT1080 tumor-bearing mice
Procedure: as §1
Each legubicin administration group corresponded to a sampling time-point (4, 16, 32, 48, 96, 168, and 240 h after administration). […] Blood samples and tumor, heart, and kidney tissues were collected at the sampling time points (4, 16, 32, 48, 96, 168, and 240 h after dosing). In addition, liver, spleen, lung, stomach, small intestine, gonads, brain, skeletal muscle, and skin were also collected at 4, 32, 96, and 240 h post-dose time points in the legubicin administration group. All whole-blood samples were processed according to the same processing steps, described above, for rat whole-blood samples.
as §4

[4] = Storage stability of analytes in rat plasma (method validation); details: for Auto-Sampler Stability at 2–8 °C (72 h), Bias / Auto-Sampler Stability at 2–8 °C (72 h), Measured Concentration: processed rat plasma; for Auto-Sampler Stability at 2–8 °C (72 h), Bias / Short-Term Stability at Room Temperature (4 h), Bias / Freeze and Thaw Stability at −80 °C/Room Temperature (3 Cycles), Bias / Long-Term Stability at −80 °C (70 days), Bias: n = 6; for Auto-Sampler Stability at 2–8 °C (72 h), Measured Concentration / Freeze and Thaw Stability at −80 °C/Room Temperature (3 Cycles), Measured Concentration / Long-Term Stability at −80 °C (70 days), Measured Concentration / Short-Term Stability at Room Temperature (4 h), Measured Concentration: n = 6, mean ± SD; for Short-Term Stability at Room Temperature (4 h), Bias / Freeze and Thaw Stability at −80 °C/Room Temperature (3 Cycles), Bias / Long-Term Stability at −80 °C (70 days), Bias / Freeze and Thaw Stability at −80 °C/Room Temperature (3 Cycles), Measured Concentration / Long-Term Stability at −80 °C (70 days), Measured Concentration / Short-Term Stability at Room Temperature (4 h), Measured Concentration: rat plasma; for Short-Term Stability at Room Temperature (4 h), Bias: bias from nominal
Procedure: (§5) By investigating low- and high-concentration stability QCs in six replicates at different storage conditions, autosampler, short-term (bench-top), freeze and thaw, and long-term stability evaluations were conducted.

[5] = Storage stability of analytes in mouse liver homogenate (method validation)
Procedure: (§6) Tumor-bearing mouse tumor/individual tissue samples were homogenized by adding PBS at a ratio of 1:5 (e.g., 1 g of tumor sample to 5 mL of PBS) to make a tumor/tissue homogenate. A quantity of 60 µL of homogenate was taken as a tumor/tissue sample and processed in the same manner as the mouse plasma sample, with the exception of 240 µL of IS working solution used for protein precipitation.
as §5

[6] = Storage stability of analytes in mouse tumor homogenate (method validation)
Procedure: as §6, §5

[7] = female SD rats, multiple dose (day 22)
[8] = female SD rats, single dose (day 1)
[9] = male SD rats, multiple dose (day 22)
[10] = male SD rats, single dose (day 1)
[11] = female SD rats, single i.v. legubicin 1.5 mg/kg
[12] = female SD rats, single i.v. legubicin 5 mg/kg
[13] = female SD rats, single i.v. legubicin 15 mg/kg
[14] = male SD rats, single i.v. legubicin 1.5 mg/kg
[15] = male SD rats, single i.v. legubicin 5 mg/kg
[16] = male SD rats, single i.v. legubicin 15 mg/kg
[17] = high QC (Leu-DOX 4000, DOX 1200 pmol/mL, conjugate 80 nmol/mL)
[18] = high QC (nominal Leu-DOX 4000, DOX 1200 pmol/mL)
[19] = low QC (Leu-DOX 10, DOX 3 pmol/mL, conjugate 0.2 nmol/mL)
[20] = low QC (nominal Leu-DOX 10, DOX 3 pmol/mL)

## COc1cccc2c1C(=O)c1c(O)c3c(c(O)c1C2=O)C[C@@](O)(C(=O)CO)C[C@@H]3O[C@H]1C[C@H](NC(=O)[C@@H](N)CC(C)C)[C@H](O)[C@H](C)O1 [Leu-DOX, N-L-leucyl-doxorubicin]
[1]; [7]
  Tmax: 0.167 [0.167, 0.167] h
  AUClast: 0.0604 ± 0.00643 µM·h
  Cmax: 80.3 ± 8.57 nM
[1]; [8]
  Tmax: 0.167 [0.167, 0.167] h
  AUClast: 0.0387 ± 0.00104 µM·h
  Cmax: 60.0 ± 6.89 nM
[1]; [9]
  Tmax: 0.167 [0.167, 0.167] h
  AUClast: 0.112 ± 0.014 µM·h
  Cmax: 141 ± 22.0 nM
[1]; [10]
  Tmax: 0.167 [0.167, 0.167] h
  AUClast: 0.081 ± 0.0133 µM·h
  Cmax: 111 ± 13.5 nM
[2]; [11]
  AUClast: 0.00644 ± 0.00202 µM·h
  Cmax: 21.5 ± 7.78 nM
  Tmax: 0.167 [0.167, 0.167] h
[2]; [12]
  AUClast: 0.052 ± 0.0162 µM·h
  Cmax: 72.1 ± 16.0 nM
  Tmax: 0.167 [0.167, 0.167] h
[2]; [13]
  AUClast: 0.336 ± 0.0625 µM·h
  Cmax: 373 ± 63.2 nM
  Tmax: 0.167 [0.167, 0.167] h
[2]; [14]
  AUClast: 0.0112 ± 0.0021 µM·h
  Cmax: 29.5 ± 2.74 nM
  Tmax: 0.167 [0.167, 0.167] h
[2]; [15]
  AUClast: 0.0943 ± 0.0105 µM·h
  Cmax: 145 ± 23.9 nM
  Tmax: 0.167 [0.167, 0.167] h
[2]; [16]
  AUClast: 1.03 ± 0.244 µM·h
  Cmax: 1100 ± 243 nM
  Tmax: 0.167 [0.167, 0.167] h
[3]
  brain penetration of the metabolite: neither the metabolite doxorubicin nor free Leu-Dox permeated the brain
[3]; n = 6
  tissue concentration rank order of the metabolite: highest concentration in the liver, followed by the spleen, small intestine, kidney, tumor, lung, skin, gonads, stomach, plasma, skeletal muscle, and heart
[4]; [17]
  Auto-Sampler Stability at 2–8 °C (72 h), Bias: −6.0%
  Short-Term Stability at Room Temperature (4 h), Bias: −3.2%
  Freeze and Thaw Stability at −80 °C/Room Temperature (3 Cycles), Bias: −5.6%
  Long-Term Stability at −80 °C (70 days), Bias: 7.5%
[4]; [18]
  Auto-Sampler Stability at 2–8 °C (72 h), Measured Concentration: 3758.33 ± 422.58 nM
  Freeze and Thaw Stability at −80 °C/Room Temperature (3 Cycles), Measured Concentration: 3775.00 ± 329.89 pmol/mL
  Long-Term Stability at −80 °C (70 days), Measured Concentration: 4300.00 ± 240.83 pmol/mL
  Short-Term Stability at Room Temperature (4 h), Measured Concentration: 3871.67 ± 390.25 pmol/mL
[4]; [19]
  Auto-Sampler Stability at 2–8 °C (72 h), Bias: −0.4%
  Short-Term Stability at Room Temperature (4 h), Bias: −2.4%
  Freeze and Thaw Stability at −80 °C/Room Temperature (3 Cycles), Bias: 2.0%
  Long-Term Stability at −80 °C (70 days), Bias: 0.7%
[4]; [20]
  Auto-Sampler Stability at 2–8 °C (72 h), Measured Concentration: 9.96 ± 0.48 nM
  Freeze and Thaw Stability at −80 °C/Room Temperature (3 Cycles), Measured Concentration: 10.20 ± 0.70 pmol/mL
  Long-Term Stability at −80 °C (70 days), Measured Concentration: 10.07 ± 1.50 pmol/mL
[4]; low QC (nominal Leu-DOX 10, DOX 3 pmol/mL), UHPLC-MS/MS
  Short-Term Stability at Room Temperature (4 h), Measured Concentration: 9.76 ± 0.41 pmol/mL
[5]; mouse liver homogenate, 3 cycles, low QC (Leu-DOX 27, DOX 10 pmol/mL), n = 6
  Freeze and thaw stability at -80 °C/ room temperature, Bias: 0.9%
[5]; mouse liver homogenate, 3 cycles, low QC (nominal Leu-DOX 27, DOX 10 pmol/mL), n = 6, mean ± SD
  Freeze and thaw stability at -80 °C/ room temperature, Measured concentration: 27.23 ± 1.55 pmol/mL
[5]; mouse liver homogenate, low QC (Leu-DOX 27, DOX 10 pmol/mL), n = 6
  Short term stability at room temperature (6 h), Bias: -4.8%
[5]; mouse liver homogenate, low QC (nominal Leu-DOX 27, DOX 10 pmol/mL), n = 6, mean ± SD
  Short term stability at room temperature (6 h), Measured concentration: 25.72 ± 1.45 pmol/mL
[5]; processed mouse liver homogenate, 48h, low QC (Leu-DOX 27, DOX 10 pmol/mL), n = 6
  Auto-sampler stability at 2-8 °C, Bias: 3.6%
[5]; processed mouse liver homogenate, 48h, low QC (nominal Leu-DOX 27, DOX 10 pmol/mL), n = 6, mean ± SD
  Auto-sampler stability at 2-8 °C, Measured concentration: 27.97 ± 3.06 pmol/mL
[6]; mouse tumor homogenate, 3 cycles, low QC (Leu-DOX 27, DOX 9 pmol/mL), n = 6
  Freeze and thaw stability at -80 °C/ room temperature, Bias: 2.6%
[6]; mouse tumor homogenate, 3 cycles, low QC (nominal Leu-DOX 27, DOX 9 pmol/mL), n = 6, mean ± SD
  Freeze and thaw stability at -80 °C/ room temperature, Measured concentration: 27.70 ± 1.13 pmol/mL
[6]; mouse tumor homogenate, low QC (Leu-DOX 27, DOX 9 pmol/mL), n = 6
  Short term stability at room temperature (6 h), Bias: 2.2%
[6]; mouse tumor homogenate, low QC (nominal Leu-DOX 27, DOX 9 pmol/mL), n = 6, mean ± SD
  Short term stability at room temperature (6 h), Measured concentration: 27.58 ± 1.95 pmol/mL
[6]; processed mouse tumor homogenate, 48h, low QC (Leu-DOX 27, DOX 9 pmol/mL), n = 6
  Auto-sampler stability at 2-8 °C, Bias: -0.4%
[6]; processed mouse tumor homogenate, 48h, low QC (nominal Leu-DOX 27, DOX 9 pmol/mL), n = 6, mean ± SD
  Auto-sampler stability at 2-8 °C, Measured concentration: 26.88 ± 0.94 pmol/mL
